Here are results for 13 compounds from patent publication US20020019389A1, “Urea derivative useful as an anti-cancer agent and process for preparing same” (priority 2000, published 2002).

Converted amounts (≈) assume the structure as drawn. Like-named read-outs stand apart in the source and are kept apart here.

One data set relates to A431 cell line. The data set can be described thus: Anti-cancer activity in vitro, A431 cell line. As to conditions: Homo sapiens, A-431, read-out: LC50. Type of data set: cell-based. On the procedure: (§1) The anti-cancer activity and toxicity of the compound according to the present invention were evaluated in vitro using A549 (lung cancer), SUN638 (gastric cancer), HCT116 (rectal cancer), and A431 (ovarian cancer) cell lines. The above four (4) cell lines were purchased from Cancer Research Institute, Seoul National University College of Medicine. […] The experiment was basically carried out according to the process described in Monks, A., et al, Journal of National Cancer Institute. 83: 757-766 (1991) and the results are represented in the following Tables 2 and 3.

The test system of data set [1] is A431 (ovarian cancer) cell line. Kind of data set: Anti-cancer activity in vitro, A431 cell line. In kind it is cell-based. As for the experimental part: as §1
The subject of data set [2] is HCT116 (rectal cancer) cell line. Kind of data set: Anti-cancer activity in vitro, HCT116 cell line. Type of data set: cell-based. As for the experimental part:
as §1

The subject of data set [3] is A549 (lung cancer) cell line. Kind of data set: Anti-cancer activity in vitro, A549 cell line. Type of data set: cell-based. On the procedure: as §1
Data set [4] in a line: Acute toxicity test, single oral administration. Type of data set: in vivo. To be noted: mouse, in vivo, single administration per oral, 7-day observation. As for the experimental part:
(§2) (1) Test Animal: SPF ICR mouse
(§3) (2) Age of the Test Animal: 4 weeks from acquisition 5 weeks from the start of administration
(§4) (3) Gender and Number of Test Animal: respective 18 he and she-mice (6 groups in each of he and she-mice, 3 mice per group)
(§5) (4) Breeding Environment: Temperature 22±3° C., Relative humidity […], Illumination 150-300 Lux
(§6) (5) Method of Administration: Single administration per oral
(§7) (6) Items to be Observed: General symptoms, appearance, weight and autopsy of dead mice
(§8) (8) Medium: 0.5% Tween 80

The test system of data set [5] is SUN638 (gastric cancer) cell line. The data set can be described thus: Anti-cancer activity in vitro, SUN638 cell line. In kind it is cell-based. On the procedure:
as §1

Data set [6] concerns SPF ICR mouse. Kind of data set: Acute toxicity test, single oral administration. Type of data set: in vivo. As to conditions: single administration per oral, 7-day observation. On the procedure:
as §2, §3, §4, §5, §6, §7, §8

The subject of data set [7] is SPF ICR mouse. To be noted: clinically used comparison drugs, not among the test compounds of b552; species and route not given; cited from earlier work.
[8] abbreviates: Homo sapiens, HCT-116, read-out: LC50.
Where [9] appears, read: Homo sapiens, A549, read-out: LC50.
Setting [10] is: both sexes, male and female ICR mice.
[11] abbreviates: Homo sapiens, A-431, A431 Cell Line, read-out: GI50.
Where [12] appears, read: Homo sapiens, HCT-116, HCT116 Cell Line, read-out: GI50.
Where [13] appears, read: Homo sapiens, A549 Cell Line, read-out: GI50.
The mark [14] stands for this setting: SUN638 Cell Line, read-out: GI50.

With `Cc1cc(C)cc(N2CCN(C(=O)n3ccnc3)CC2)c1.Cl` [Compound 57, 1-[(1H-imidazol-1-yl)carbonyl]-4-(3,5-dimethylphenyl)piperazine hydrochloride], the LC50 (in the data set on A431 cell line; in data set [2] (setting [8]); in data set [3] (setting [9]); in data set [5] (read-out: LC50)) was above 100 µg/mL throughout. In addition, the TGI50 in data set [1] (A431 Cell Line) amounted to 8.31 µg/mL. For the same compound, the GI50 (in general, the concentration giving 50% growth inhibition) in data set [1] (Homo sapiens, A-431) worked out at 1.51 µg/mL; in data set [2] (Homo sapiens, HCT-116), 1.34 µg/mL; in data set [3] (Homo sapiens, A549), 1.77 µg/mL; in data set [5], 1.69 µg/mL. Also, the LD50 at 7 day in data set [4] (setting [10]) came out at 1160 mg/kg.

Turning to `COc1cc2c(cc1OC)C(c1ccccc1)CN(C(=O)n1ccnc1)CC2` (stereo not drawn) [Compound 66, 3-[(1H-imidazol-1-yl)carbonyl]-7,8-dimethoxy-1-phenyl-2,3,4,5-tetrahydro-3H-benzazepine], the GI50 was determined as 0.28 µg/mL (≈ 0.742 µM) in data set [1] (A431 Cell Line), 0.19 µg/mL (≈ 0.503 µM) in data set [2] (HCT116 Cell Line), 0.38 µg/mL (≈ 1.01 µM) in data set [3] (A549 Cell Line) and 0.21 µg/mL (≈ 0.556 µM) in data set [5] (SUN638 Cell Line). Also, the LC50 in data set [1] (A431 Cell Line), in data set [2] (HCT116 Cell Line), in data set [3] (A549 Cell Line) and in data set [5] (SUN638 Cell Line) was above 100 µg/mL in each case. Also, the TGI50 turned out to be 100 µg/mL in data set [1] (A431 Cell Line), 7.76 µg/mL in data set [2] (HCT116 Cell Line), 54.95 µg/mL in data set [3] (A549 Cell Line) and 1.73 µg/mL in data set [5] (SUN638 Cell Line). The LD50 is listed as 2000 (female) mg/kg with SPF ICR mouse [6] (female ICR mice) and 1921 (male) mg/kg with SPF ICR mouse [6] (male ICR mice).

On to `COc1cc2c(cc1OC)C(c1ccc(F)cc1)CN(C(=O)n1ccnc1)CC2` (stereo not drawn) [Compound 70, 3-[(1H-imidazol-1-yl)carbonyl]-7,8-dimethoxy-1-(4-fluoro)phenyl-2,3,4,5-tetrahydro-3H-benzazepine], for which the figures for the GI50 in data set [2] (HCT116 Cell Line), in data set [3] (A549 Cell Line) and in data set [5] (SUN638 Cell Line) were 1.31 µg/mL (≈ 3.31 µM), 1.12 µg/mL (≈ 2.83 µM) and 1.78 µg/mL (≈ 4.5 µM), respectively. For the same compound, the LC50 in data set [2] (HCT116 Cell Line), in data set [3] (A549 Cell Line) and in data set [5] (SUN638 Cell Line) was above 100 µg/mL throughout. Besides, the TGI50 in data set [2] (HCT116 Cell Line) came out at 23.98 µg/mL; in data set [3] (A549 Cell Line), 100 µg/mL; in data set [5] (SUN638 Cell Line), 7.24 µg/mL. For the same compound, the LD50 in the data set on SPF ICR mouse [6] (male and female ICR mice) is 2000 (male and female) mg/kg.

On to `C=CCNc1nc(NCC=C)nc(N2CCN(C(=O)NC(c3ccccc3)c3ccccc3)CC2)n1` [Compound 38, 1-[(diphenylmethyl)aminocarbonyl]-4-(4,6-bis-allylamino-[1,3,5]triazin-2-yl)piperazine], for which the LC50 (with A431 cell line; in data set [2] (setting [8]); in data set [3] (setting [9]); in data set [5] (read-out: LC50)) was above 100 µg/mL in each case. Further, in data set [1] (A431 Cell Line), the TGI50 amounted to 7.24 µg/mL. Besides, the GI50 in data set [1] (setting [11]) turned out to be 1.41 µg/mL (≈ 2.91 µM); in data set [2] (setting [12]) it was 1.28 µg/mL (≈ 2.64 µM); in data set [3] (setting [13]), 1.28 µg/mL (≈ 2.64 µM); in data set [5] (setting [14]), 2.75 µg/mL (≈ 5.67 µM). Further, the LD50 at 7 day in data set [4] (setting [10]) was determined as 2000 mg/kg.

In the case of `COc1cc2c(cc1OC)C(c1ccccc1)CN(C(=O)Nc1nc3ccccc3nc1OC)CC2` (stereo not drawn) [Compound 2, 3-[N-(2-methoxyquinoxalin-3-yl)aminocarbonyl]-7,8-dimethoxy-1-phenyl-2,3,4,5-tetrahydro-3H-benzazepine], in the data set on SPF ICR mouse [6] (male and female ICR mice), the LD50 is 2000 (male and female) mg/kg.

As to `COc1cccc2c1C(=O)c1c(O)c3c(c(O)c1C2=O)C[C@@](O)(C(=O)CO)C[C@@H]3O[C@H]1C[C@H](N)[C@H](O)[C@H](C)O1` [Doxorubicin], in the data set with SPF ICR mouse [7], the LD50 is 21.1 mg/kg.

For `Cc1cc(C)cc(N2CCN(C(=S)n3ccnc3)CC2)c1` [Compound 56, 1-[(1H-imidazol-1-yl)thiocarbonyl]-4-(3,5-dimethylphenyl) piperazine], the LC50 (in the data set with A431 cell line; in data set [2] (setting [8]); in data set [3] (setting [9]); in data set [5] (read-out: LC50)) was above 100 µg/mL throughout. Besides, the TGI50 in data set [1] (A431 Cell Line) was found to be 28.84 µg/mL. In addition, the GI50 in data set [1] (setting [11]) was found to be 1.31 µg/mL (≈ 4.36 µM); in data set [2] (setting [12]), 1.47 µg/mL (≈ 4.89 µM); in data set [3] (setting [13]) it was 2.04 µg/mL (≈ 6.79 µM); in data set [5] (setting [14]) it was 1.34 µg/mL (≈ 4.46 µM).

With `C=CCN(CC=C)c1nc(N(CC=C)CC=C)nc(N2CCN(C(=O)n3ccnc3)CC2)n1` [Compound 61, 1-[(1H-imidazol-1-yl)carbonyl]-4-(4,6-bis-diallylamino-[1,3,5]triazin-2-yl)piperazine], the GI50 in data set [3] (Homo sapiens, A549) is 6.02 µg/mL (≈ 13.4 µM); in data set [5], 2.95 µg/mL (≈ 6.56 µM). Also, the LC50 in data set [3] (setting [9]) and in data set [5] (read-out: LC50) was above 100 µg/mL each time. Moreover, the figures for the LD50 at 7 day in data set [4] (female ICR mice) and in data set [4] (male ICR mice) were 1140 mg/kg and 2330 mg/kg, respectively.

With `Cc1cc(C)cc(N2CCN(C(=O)n3ccnc3)CC2)c1` [Compound 55, 1-[(1H-imidazol-1-yl)carbonyl]-4-(3,5-dimethylphenyl)piperazine], the LC50 (with A431 cell line; in data set [2] (setting [8]); in data set [3] (setting [9]); in data set [5] (read-out: LC50)) was above 100 µg/mL throughout. The compound also displayed a TGI50 in data set [1] (A431 Cell Line) of 67.60 µg/mL. The GI50 amounted to 1.38 µg/mL (≈ 4.85 µM) in data set [1] (Homo sapiens, A-431); 2.08 µg/mL (≈ 7.31 µM) in data set [2] (Homo sapiens, HCT-116); 1.77 µg/mL (≈ 6.22 µM) in data set [3] (Homo sapiens, A549); 1.09 µg/mL (≈ 3.83 µM) in data set [5].

`O=C(N1CCN(c2nc(NCC3CC3)nc(NCC3CC3)n2)CC1)n1ccnc1` [Compound 62, 1-[(1H-imidazol-1-yl)carbonyl]-4-(4,6-bis-cyclopropylmethylamino-[1,3,5]triazin-2-yl)piperazine]: the GI50 in data set [2] (Homo sapiens, HCT-116) is 0.38 µg/mL (≈ 0.956 µM); in data set [3] (Homo sapiens, A549), 0.48 µg/mL (≈ 1.21 µM); in data set [5], 0.61 µg/mL (≈ 1.53 µM). Also, the LC50 in data set [2] (setting [8]), in data set [3] (setting [9]) and in data set [5] (read-out: LC50) was above 100 µg/mL each time. Further, the LD50 at 7 day in data set [4] (female ICR mice) was 466 mg/kg; in data set [4] (male ICR mice), 354 mg/kg.

On to `N.N.[Cl][Pt][Cl]` [Cisplatin, cisplatin, reference compound], for which the GI50 in data set [1] (A431 Cell Line) was found to be 3.2 µg/mL; in data set [2] (HCT116 Cell Line), 2.9 µg/mL; in data set [3] (A549 Cell Line) it was 3.8 µg/mL; in data set [5] (SUN638 Cell Line), 1.7 µg/mL. Moreover, the TGI50 in data set [1] (A431 Cell Line) turned out to be 28.7 µg/mL; in data set [2] (HCT116 Cell Line), 32.77 µg/mL; in data set [3] (A549 Cell Line) it was 47.3 µg/mL; in data set [5] (SUN638 Cell Line) it was 13.3 µg/mL.

Regarding `COc1nc2ccccc2nc1NC(=O)N1CCN(C(c2ccccc2)c2ccccc2)CC1` [Compound 48, 1-[N-(2-methoxyquinoxalin-3-yl)aminocarbonyl]-4-(diphenylmethyl)piperazine], the LC50 (in the data set with A431 cell line; in data set [2] (setting [8]); in data set [3] (setting [9]); in data set [5] (read-out: LC50)) was above 100 µg/mL each time. This compound also showed a TGI50 in data set [1] (A431 Cell Line) of 100 µg/mL. Moreover, the GI50 is 1.65 µg/mL (≈ 3.64 µM) in data set [1] (setting [11]), 0.67 µg/mL (≈ 1.48 µM) in data set [2] (setting [12]), 1.07 µg/mL (≈ 2.36 µM) in data set [3] (setting [13]) and 1.62 µg/mL (≈ 3.57 µM) in data set [5] (setting [14]).

Turning to `N.N.O=C([O-])C1(C(=O)[O-])CCC1.[Pt+2]` [Carboplatin], the LD50 in the data set on SPF ICR mouse [7] is recorded as 150 mg/kg.
